Legend:
[1] = Body weight monitoring of HFD-fed mice; format: in vivo, mouse
Protocol: Male C57BL/6J background and ob/ob mice were obtained from CLEA Japan Inc. and Japan SLC, respectively (3). The reason why male mice were selected is that it has been reported that male mice are susceptible to HFD, such as weight gain, metabolic changes, and disorder of learning and hippocampal synaptic plasticity. These animals were housed 3 to 4 per cage in a standard 12 hour dark-light cycle room at 25° C. in an environment with freely available food and water. All animal experiments were performed in accordance with the guidelines of the Animal Experiment Ethics Committee of the University of the Ryukyus. Time series changes in average food intake and average body weight were monitored in each condition.
Post-weaning (6 weeks) food intake and body weight of mice maintained on control diet (CD), high-fat diet (HFD), or HFD containing PER (Fycompa (trademark), Eisai, Japan) (5 mg/kg/day) was monitored up to 18 w (FIGS. 2, E and F). […]
Mice were then split into an HFD-fed group (n=5) and a PER-containing HFD-fed group (n=5) under the condition of the same feeding amount (refer to lower Panel of FIG. 25) and their body weights monitored.

NL-GF mice = experiment: Novel object recognition test, AD model mice (NL-GF); format: in vivo, mouse; conditions: NL-GF mice n=5; CD diet with perampanel 5 mg/kg body weight/day from 8 to 13 weeks of age
Protocol: Mice of CD, HFD, and HFD with PER treatment were handled daily for 5 minutes for 5 days prior to the start of the novel object recognition test. PER means the perampanel, which is an AMPA receptor antagonist. The mice were habituated to a 35 cm square, 25 cm high box for 10 minutes on the first day, and were given 2 identical objects (familiar objects) for 10 minutes on the second day. On the third day, one of the familiar objects was replaced with a novel object of different shape and color (FIG. 2F). […] The search time for each object was measured by offline analysis (47).
NL-GF mice begin to accumulate in the brain of Aβ from 8 weeks of age (Nat. Neurosci. 2014 17,661-4). In this example, the AD model mouse (n=5) was fed a CD diet containing a perampanel at a dose of 5 mg/kg body weight/day from 8 to 13 weeks of age, and the mouse was subjected to a novel object recognition test. In the negative control (n=5), a normal CD diet without perampanel was taken.

In the case of `N#Cc1ccccc1-c1cc(-c2ccccn2)cn(-c2ccccc2)c1=O` [PER, 3-(2-cyanophenyl)-5-(2-pyridyl)-1-phenyl-1,2-dihydropyridine-2-one], the “body weight of HFD-fed mice” value ([1]; HFD containing PER 5 mg/kg/day from 6 weeks, effect started from 16 w compared to HFD) is reported as “significant inhibition”, the “body weight under the condition of the same feeding amount” value ([1]; PER-containing HFD-fed group n=5 vs HFD-fed group n=5) is reported as “significant body weight loss” and the “novel object recognition test” value (NL-GF mice) is reported as “significantly distinguish”.
